Consider 1 compound from ChEMBL document CHEMBL5154702, “Synthesis and biological evaluation of aminobenzamides containing purine moiety as class I histone deacetylases inhibitors” (Bioorg Med Chem, 2022).

For orientation: IC50 means the point on the concentration scale where inhibition reaches its midpoint.

Data set [1] has as its system MDA-MB-231. In words: Potency index, ratio of SAHA IC50 to test compound IC50 for antiproliferative activity against human MDA-MB-231 cells. The class given is functional.
The test system of data set [2] is HCT-116. In words: Cell cycle arrest in human HCT-116 cells assessed as accumulation of cells at G2/M phase at 10 uM measured after 6 hrs by propidium iodide staining based flow cytometry (reference value: 22.74%). The class given is functional. (In general: A flow cytometer gives signals particle by particle.)
Data set [3] concerns HCT-116. Nature of the data set: Induction of apoptosis in human HCT-116 cells assessed as early apoptotic cells at 5 uM measured after 24 hrs by Annexin V-FITC/propidium iodide staining based flow cytometry (reference value: 1.87%). The class given is functional.
Data set [4] concerns HCT-116. Nature of the data set: Cell cycle arrest in human HCT-116 cells assessed as accumulation of cells at G0/G1 phase at 0.5 uM measured after 24 hrs by propidium iodide staining based flow cytometry (reference value: 58.05%). The class given is functional.
Data set [5] deals with HCT-116. In words: Cell cycle arrest in human HCT-116 cells assessed as accumulation of cells at G0/G1 phase at 0.1 uM measured after 24 hrs by propidium iodide staining based flow cytometry (reference value: 58.05%). The class given is functional.
Data set [6] has as its system HCT-116. In words: Induction of apoptosis in human HCT-116 cells assessed as necrotic cells at 1 uM measured after 24 hrs by Annexin V-FITC/propidium iodide staining based flow cytometry (reference value: 7.39%). The data set is classed as functional.
Data set [7] addresses Histone deacetylase 3/Nuclear receptor corepressor 2 (HDAC3/NCoR2) (Homo sapiens, UniProt O15379). In words: biochemical. The arrangement: species or system Sf9.
The next data set has as its system A549. In words: cells. The class given is functional, cell-based. The settings on record: Homo sapiens, A549, 48 h.
The test system of data set [8] is HCT-116. Nature of the data set: Cell cycle arrest in human HCT-116 cells assessed as accumulation of cells at G2/M phase at 10 uM measured after 24 hrs by propidium iodide staining based flow cytometry (reference value: 22.74%). The data set is classed as functional.
Data set [9] concerns MDA-MB-231. In words: Antiproliferative activity against human MDA-MB-231 cells measured after 48 hrs by MTT assay. The class given is functional, cell-based. As to conditions: MDA-MB-231, 48 h.
Data set [10] has as its system HCT-116. Nature of the data set: Induction of apoptosis in human HCT-116 cells assessed as viable cells at 5 uM measured after 24 hrs by Annexin V-FITC/propidium iodide staining based flow cytometry (reference value: 87.3%). The data set is classed as functional. The settings on record: read-out: Activity.
The subject of data set [11] is HCT-116. Nature of the data set: Cell cycle arrest in human HCT-116 cells assessed as accumulation of cells at G2/M phase at 1 uM measured after 24 hrs by propidium iodide staining based flow cytometry (reference value: 22.74%). The data set is classed as functional.
In data set [12] the test system is HCT-116. In words: Induction of apoptosis in human HCT-116 cells assessed as necrotic cells at 0.5 uM measured after 24 hrs by Annexin V-FITC/propidium iodide staining based flow cytometry (reference value: 7.39%). The data set is classed as functional.
In data set [13] the target is Histone deacetylase (Homo sapiens) (UniProt Q13547+O15379+Q9UBN7+Q92769+Q9UQL6+Q8WUI4+Q9BY41+Q96DB2+P56524+Q9UKV0+Q969S8). In words: Potency index, ratio of MS-275 IC50 to test compound IC50 for inhibition of HDAC in human HeLa cell nuclear extracts using color de Lys as substrate.
The nature of data set [14]: Intrinsic clearance in human liver microsomes assessed per mg protein at 13.8 uM by HPLC analysis. The class given is ADME, Microsome.
The target in data set [15] is T1, Protein deacetylase HDAC6 (Homo sapiens, UniProt Q9UBN7).
T1 sequence (Q9UBN7 whole entry): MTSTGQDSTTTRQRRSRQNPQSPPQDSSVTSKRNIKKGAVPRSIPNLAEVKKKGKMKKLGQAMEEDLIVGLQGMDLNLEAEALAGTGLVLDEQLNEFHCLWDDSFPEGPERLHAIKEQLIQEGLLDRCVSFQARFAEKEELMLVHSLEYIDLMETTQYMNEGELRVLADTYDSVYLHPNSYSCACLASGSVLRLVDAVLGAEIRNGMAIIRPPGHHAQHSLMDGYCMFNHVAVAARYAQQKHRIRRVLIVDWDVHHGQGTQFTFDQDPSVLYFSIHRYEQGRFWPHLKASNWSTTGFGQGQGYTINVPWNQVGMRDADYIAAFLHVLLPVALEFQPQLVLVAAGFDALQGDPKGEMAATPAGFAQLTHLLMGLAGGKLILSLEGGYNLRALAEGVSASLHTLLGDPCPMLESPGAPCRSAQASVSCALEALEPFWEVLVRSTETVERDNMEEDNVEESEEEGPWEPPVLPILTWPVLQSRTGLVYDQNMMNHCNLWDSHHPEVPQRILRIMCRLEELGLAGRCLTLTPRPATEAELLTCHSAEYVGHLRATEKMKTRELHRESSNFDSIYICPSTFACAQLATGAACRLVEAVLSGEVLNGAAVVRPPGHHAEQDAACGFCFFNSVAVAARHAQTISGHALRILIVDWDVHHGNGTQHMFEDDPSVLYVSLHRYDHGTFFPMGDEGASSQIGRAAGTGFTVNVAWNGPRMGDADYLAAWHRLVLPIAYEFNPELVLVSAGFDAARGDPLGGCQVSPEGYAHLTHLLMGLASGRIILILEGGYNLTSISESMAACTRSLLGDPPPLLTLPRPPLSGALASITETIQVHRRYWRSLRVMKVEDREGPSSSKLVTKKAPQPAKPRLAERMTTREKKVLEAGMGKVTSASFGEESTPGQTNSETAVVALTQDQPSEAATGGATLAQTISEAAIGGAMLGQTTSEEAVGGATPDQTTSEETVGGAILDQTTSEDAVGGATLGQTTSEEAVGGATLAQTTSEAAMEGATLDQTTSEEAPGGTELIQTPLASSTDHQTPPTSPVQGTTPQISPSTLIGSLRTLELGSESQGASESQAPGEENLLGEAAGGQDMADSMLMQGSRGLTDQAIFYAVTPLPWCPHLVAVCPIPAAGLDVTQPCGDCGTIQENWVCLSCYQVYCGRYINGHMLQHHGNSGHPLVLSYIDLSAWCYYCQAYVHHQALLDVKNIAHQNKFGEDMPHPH
In words: Inhibition of recombinant human N-terminal GST-tagged HDAC6 (1 to 1215 residues) expressed in Sf9 insect cells using fluorogenic HDAC substrate 3 measured after 30 mins by fluorimetry.

The test system of data set [16] is HCT-116. Nature of the data set: Cell cycle arrest in human HCT-116 cells assessed as accumulation of cells at G0/G1 phase at 5 uM measured after 24 hrs by propidium iodide staining based flow cytometry (reference value: 58.05%). The data set is classed as functional.
The subject of data set [17] is HCT-116. Nature of the data set: Cell cycle arrest in human HCT-116 cells assessed as down regulation of cyclin D1 expression measured after 24 hrs by Western blot analysis. The class given is functional, cell-based. The settings on record: dose 0.1-10 µM, DDE = dose-dependent effect. On the technique in general: A western blot detects proteins with antibodies after separation by electrophoresis.

For data set [18], the system named is HCT-116. In words: Cell cycle arrest in human HCT-116 cells assessed as increase in accumulation of cells at G0/G1 phase at 10 uM by propidium iodide staining based flow cytometry. The data set is classed as functional. As to conditions: time 6-24 hrs, TDE = time-dependent effect.
The nature of data set [19]: Intrinsic clearance in dog liver microsomes assessed per mg protein at 13.8 uM by HPLC analysis. The data set is classed as ADME, Canis lupus familiaris, Microsome.
For data set [20], the system named is HCT-116. In words: Induction of apoptosis in human HCT-116 cells assessed as late apoptotic cells at 5 uM measured after 24 hrs by Annexin V-FITC/propidium iodide staining based flow cytometry (reference value: 3.43%). The data set is classed as functional.

Chain of Histone deacetylase 3/Nuclear receptor corepressor 2 (HDAC3/NCoR2) (O15379 whole entry): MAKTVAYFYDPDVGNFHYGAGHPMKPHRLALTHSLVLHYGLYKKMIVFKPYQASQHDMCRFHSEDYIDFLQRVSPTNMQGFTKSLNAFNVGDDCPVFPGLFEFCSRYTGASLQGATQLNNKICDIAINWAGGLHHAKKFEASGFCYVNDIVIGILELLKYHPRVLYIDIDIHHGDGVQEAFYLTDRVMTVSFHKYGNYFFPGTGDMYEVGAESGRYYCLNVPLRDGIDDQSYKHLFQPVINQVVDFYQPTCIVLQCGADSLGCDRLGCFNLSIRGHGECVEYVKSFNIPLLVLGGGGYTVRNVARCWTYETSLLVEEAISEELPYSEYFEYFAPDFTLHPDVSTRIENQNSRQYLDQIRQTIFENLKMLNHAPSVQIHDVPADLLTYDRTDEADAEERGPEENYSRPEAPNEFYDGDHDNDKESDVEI
Chain of Histone deacetylase 3/Nuclear receptor corepressor 2 (HDAC3/NCoR2) (Q9Y618 whole entry, further chain): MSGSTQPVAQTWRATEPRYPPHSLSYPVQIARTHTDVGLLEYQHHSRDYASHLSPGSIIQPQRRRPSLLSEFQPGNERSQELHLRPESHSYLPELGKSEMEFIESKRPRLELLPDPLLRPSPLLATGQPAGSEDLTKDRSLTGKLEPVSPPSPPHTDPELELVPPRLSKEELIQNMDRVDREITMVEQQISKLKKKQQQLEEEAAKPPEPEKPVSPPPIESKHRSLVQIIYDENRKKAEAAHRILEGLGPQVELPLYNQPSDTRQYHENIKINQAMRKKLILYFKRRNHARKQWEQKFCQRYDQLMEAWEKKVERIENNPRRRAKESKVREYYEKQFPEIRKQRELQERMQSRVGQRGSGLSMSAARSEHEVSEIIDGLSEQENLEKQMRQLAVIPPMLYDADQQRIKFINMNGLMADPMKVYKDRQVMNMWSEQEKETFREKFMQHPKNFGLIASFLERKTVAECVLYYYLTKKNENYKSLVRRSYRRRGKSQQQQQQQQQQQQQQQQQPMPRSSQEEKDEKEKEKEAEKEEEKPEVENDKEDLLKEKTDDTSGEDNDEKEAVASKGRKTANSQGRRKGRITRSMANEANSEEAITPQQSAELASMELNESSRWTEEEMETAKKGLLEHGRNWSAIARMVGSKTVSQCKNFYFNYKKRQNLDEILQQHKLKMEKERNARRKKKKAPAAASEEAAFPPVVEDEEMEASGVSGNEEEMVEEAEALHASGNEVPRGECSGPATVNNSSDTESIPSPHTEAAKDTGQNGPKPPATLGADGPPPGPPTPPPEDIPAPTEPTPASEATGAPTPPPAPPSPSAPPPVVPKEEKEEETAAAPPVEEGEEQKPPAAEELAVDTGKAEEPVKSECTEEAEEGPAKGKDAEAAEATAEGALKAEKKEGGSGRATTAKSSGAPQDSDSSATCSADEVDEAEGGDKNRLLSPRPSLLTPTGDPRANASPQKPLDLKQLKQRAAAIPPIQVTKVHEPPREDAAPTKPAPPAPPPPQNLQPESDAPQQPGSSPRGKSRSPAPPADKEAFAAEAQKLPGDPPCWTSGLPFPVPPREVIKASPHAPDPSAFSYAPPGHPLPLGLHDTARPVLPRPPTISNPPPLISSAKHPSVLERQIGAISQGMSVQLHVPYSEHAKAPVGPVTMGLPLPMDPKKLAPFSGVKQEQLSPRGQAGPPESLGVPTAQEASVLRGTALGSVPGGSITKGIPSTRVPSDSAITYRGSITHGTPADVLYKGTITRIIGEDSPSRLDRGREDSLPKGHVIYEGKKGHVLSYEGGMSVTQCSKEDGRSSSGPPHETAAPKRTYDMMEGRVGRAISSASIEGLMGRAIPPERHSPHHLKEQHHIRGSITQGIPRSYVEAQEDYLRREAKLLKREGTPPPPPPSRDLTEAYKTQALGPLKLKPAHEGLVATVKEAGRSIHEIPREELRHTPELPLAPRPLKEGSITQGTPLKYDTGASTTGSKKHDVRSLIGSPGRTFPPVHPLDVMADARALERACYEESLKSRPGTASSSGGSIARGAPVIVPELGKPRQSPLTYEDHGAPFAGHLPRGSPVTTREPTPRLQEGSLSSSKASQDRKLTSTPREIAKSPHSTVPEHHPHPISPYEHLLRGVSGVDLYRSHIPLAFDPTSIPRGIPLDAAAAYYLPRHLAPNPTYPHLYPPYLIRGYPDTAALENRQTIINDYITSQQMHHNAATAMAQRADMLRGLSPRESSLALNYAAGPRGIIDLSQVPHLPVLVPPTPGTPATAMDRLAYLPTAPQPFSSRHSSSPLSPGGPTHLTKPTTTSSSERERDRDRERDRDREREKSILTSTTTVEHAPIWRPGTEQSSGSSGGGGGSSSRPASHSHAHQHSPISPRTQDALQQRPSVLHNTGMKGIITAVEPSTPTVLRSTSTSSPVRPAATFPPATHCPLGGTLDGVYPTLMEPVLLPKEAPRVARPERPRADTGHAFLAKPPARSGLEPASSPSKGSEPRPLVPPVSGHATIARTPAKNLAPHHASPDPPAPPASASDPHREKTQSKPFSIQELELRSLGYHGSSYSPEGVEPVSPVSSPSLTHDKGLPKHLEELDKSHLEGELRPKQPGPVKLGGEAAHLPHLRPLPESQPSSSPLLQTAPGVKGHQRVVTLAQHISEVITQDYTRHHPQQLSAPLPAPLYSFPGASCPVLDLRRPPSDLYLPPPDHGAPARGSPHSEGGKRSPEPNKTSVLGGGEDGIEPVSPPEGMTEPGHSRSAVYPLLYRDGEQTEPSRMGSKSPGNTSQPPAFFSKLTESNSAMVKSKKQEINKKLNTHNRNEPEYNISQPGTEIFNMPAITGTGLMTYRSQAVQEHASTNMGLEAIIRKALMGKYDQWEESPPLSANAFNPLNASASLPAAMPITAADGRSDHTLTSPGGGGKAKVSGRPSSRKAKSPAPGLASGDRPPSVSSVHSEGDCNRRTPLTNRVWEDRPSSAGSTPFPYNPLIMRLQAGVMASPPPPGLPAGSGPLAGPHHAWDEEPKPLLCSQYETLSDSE

As to `CCCCNc1nc(Cl)nc2c1ncn2Cc1ccc(C(=O)Nc2ccccc2N)cc1`, the “Ratio IC50” value turned out to be 4 with MDA-MB-231 [1] and 19 in data set [13]. For the same compound, the Activity with HCT-116 [2] is reported as 20.04%; in the data set on HCT-116 [3], 70.6%; in the data set on HCT-116 [4], 64.42%; in the data set on HCT-116 [5], 59.1%; with HCT-116 [6], 1.2%; with HCT-116 [8], 11.15%. In addition, the Activity was 15.43% in the data set on HCT-116 [11]; 0.442% with HCT-116 [12]; 67.96% in the data set with HCT-116 [16]; “Dde” with HCT-116 [17]; “Tde” with HCT-116 [18]; 10.1% with HCT-116 [20]. Besides, the IC50 in data set [7] was 1240 nM; with A549, 1650 nM; in the data set on MDA-MB-231 [9], 380 nM; in data set [15], 34200 nM. Moreover, the viability at 5 µM in the data set on HCT-116 [10] worked out at 18.4%. Besides, the CLint came to 2.5 µL/min/mg in data set [14] and 3.1 µL/min/mg in [19].
